From patent US11395857B2, “Radiolabeled melanocortin 1 receptor-specific alpha-melanocyte-stimulating hormone analogues for imaging or therapy” (PROVINCIAL HEALTH SERVICES AUTHORITY, priority 2018, dated 2022)
Read-outs that look alike come from different tables or passages of the source.

Experiments:
B16F10 mouse melanoma = test: Biodistribution of 177Lu-labeled αMSH analogues in mice bearing B16F10 mouse melanoma; type: in vivo, C57BL/6J mice
Description: (§1) The B16-F10 mouse melanoma cells were cultured and inoculated in mice as described in Example 1.
(§2) For biodistribution studies, approximately 1-2 MBq of ^177Lu-labeled αMSH analogues via tail vein under anesthesia. At 1, 4, 24, and 120 h p.i., the mice were euthanized by CO2 inhalation. Organs/tissues were harvested and the radioactivity was measured as described in Example 1.

[1] = In vivo stability in mouse urine at 1 h p.i. (radio-HPLC); parameters: species or system C57BL/6J mice
Description: All animal experiments were conducted in according to the guidelines established by Canadian Council on Animal Care and approved by Animal Ethics Committee of the University of British Columbia. Mice were housed under pathogen-free conditions and kept on twelve hours light and twelve hours dark cycle in the Animal Research Centre, BC Cancer Research Centre, Vancouver, Canada. C57BL/6J mice were anesthetized by inhalation with 2% isoflurane in 2.0 L/min of oxygen, and approximately 4-6 MBq of [^68Ga]Ga-CCZ01099 or [^68Ga]Ga-CCZ01048 was injected intravenously. The mice were allowed to recover and roam freely in their cages. At 1 h post-injection (p.i.), the mice were euthanized by CO2 inhalation and their urine was collected and analyzed on HPLC for metabolite using the conditions described above. In vivo urine stability of [^68Ga]Ga-CCZ01099 and [^68Ga]Ga-CCZ01048 were 34.0±10.4% and ≥98.0% (n≥3), respectively.
The in vivo stability tests in mouse urine were performed as described in Example 1. […] With systematic reduction in the number of N-methylations for the αMSH analogues, a decrease in in vivo stability was observed.

[2] = Biodistribution of 177Lu-labeled αMSH analogues in mice bearing B16F10 mouse melanoma; type: in vivo, C57BL/6J mice; settings: mouse, iv, total radioactivity, C57BL/6J mice, B16F10 melanoma
Description: as §1, §2

[3] = 120 h p.i., C57BL/6J mice, B16F10 melanoma

For `CCCC[C@H](NC(=O)CN1CCC(NC(=O)[C@H](CCCCNC(=O)CN2CCN(CC(=O)O)CCN(CC(=O)O)CCN(CC(=O)O)CC2)NC(=O)[C@H](CCC(=O)O)NC(=O)CCCc2ccc(I)cc2)CC1)C(=O)N[C@H]1CC(=O)NCCCC[C@@H](C(N)=O)N(C)C(=O)[C@H](Cc2c[nH]c3ccccc23)NC(=O)[C@H](CCCNC(=N)N)N(C)C(=O)[C@@H](Cc2ccccc2)NC(=O)[C@H](Cc2c[nH]cn2)NC1=O` [CCZ01118, [4-(p-iodophenyl)butanoyl]-Glu-Lys(DOTA)-Pip-Nle-cyclo[Asp-His-D-Phe-N-Me-Arg-Trp-N-Me-Lys]-NH2], the “Improvement in tumour uptake retention” value (B16F10 mouse melanoma; among six αMSH analogues) was “showed the most improvement in tumour uptake retention”.
For `CCCC[C@H](NC(=O)CN1CCC(NC(=O)CN2CCN(CC(=O)O)CCN(CC(=O)O)CCN(CC(=O)O)CC2)CC1)C(=O)N[C@H]1CC(=O)NCCCC[C@@H](C(N)=O)N(C)C(=O)[C@H](Cc2c[nH]c3ccccc23)N(C)C(=O)[C@H](CCCNC(=N)N)N(C)C(=O)[C@@H](Cc2ccccc2)NC(=O)[C@H](Cc2c[nH]cn2)NC1=O` [[^68Ga]Ga-CCZ01103, metal not drawn], the “In vivo urine stability, intact tracer” value [1] was 92.6 ± 1.6%.
In the case of `CCCC[C@H](NC(=O)CN1CCC(NC(=O)CN2CCN(CC(=O)O)CCN(CC(=O)O)CCN(CC(=O)O)CC2)CC1)C(=O)N[C@H]1CC(=O)NCCCC[C@@H](C(N)=O)NC(=O)[C@H](Cc2c[nH]c3ccccc23)N(C)C(=O)[C@H](CCCNC(=N)N)N(C)C(=O)[C@@H](Cc2ccccc2)NC(=O)[C@H](Cc2c[nH]cn2)NC1=O` [[^68Ga]Ga-CCZ01104, metal not drawn], the “In vivo urine stability, intact tracer” value [1] is reported as 92.5 ± 2.1%.
For `CCCC[C@H](NC(=O)CN1CCC(NC(=O)CN2CCN(CC(=O)O)CCN(CC(=O)O)CCN(CC(=O)O)CC2)CC1)C(=O)N[C@H]1CC(=O)NCCCC[C@@H](C(N)=O)N(C)C(=O)[C@H](Cc2c[nH]c3ccccc23)N(C)C(=O)[C@H](CCCNC(=N)N)NC(=O)[C@@H](Cc2ccccc2)NC(=O)[C@H](Cc2c[nH]cn2)NC1=O` [[^68Ga]Ga-CCZ01105, metal not drawn], the “In vivo urine stability, intact tracer” value [1] was 65.8 ± 2.9%.
In the case of `CCCC[C@H](NC(=O)CN1CCC(NC(=O)CN2CCN(CC(=O)O)CCN(CC(=O)O)CCN(CC(=O)O)CC2)CC1)C(=O)N[C@H]1CC(=O)NCCCC[C@@H](C(N)=O)N(C)C(=O)[C@H](Cc2c[nH]c3ccccc23)NC(=O)[C@H](CCCNC(=N)N)N(C)C(=O)[C@@H](Cc2ccccc2)NC(=O)[C@H](Cc2c[nH]cn2)NC1=O` [[^68Ga]Ga-CCZ01106] [metal not drawn], the “In vivo urine stability, intact tracer” value [1] is reported as 82.5 ± 1.8%.
With `CCCC[C@H](NC(=O)CN1CCC(NC(=O)CN2CCN(CC(=O)O)CCN(CC(=O)O)CCN(CC(=O)O)CC2)CC1)C(=O)N[C@H]1CC(=O)NCCCC[C@@H](C(N)=O)NC(=O)[C@H](Cc2c[nH]c3ccccc23)NC(=O)[C@H](CCCNC(=N)N)N(C)C(=O)[C@@H](Cc2ccccc2)NC(=O)[C@H](Cc2c[nH]cn2)NC1=O` [[^68Ga]Ga-CCZ01114, metal not drawn] the “In vivo urine stability, intact tracer” value [1] was 41.4 ± 3.9%.
In the case of `CCCC[C@H](NC(=O)CN1CCC(NC(=O)CN2CCN(CC(=O)O)CCN(CC(=O)O)CCN(CC(=O)O)CC2)CC1)C(=O)N[C@H]1CC(=O)NCCCC[C@@H](C(N)=O)NC(=O)[C@H](Cc2c[nH]c3ccccc23)NC(=O)[C@H](CCCNC(=N)N)NC(=O)[C@@H](Cc2ccccc2)NC(=O)[C@H](Cc2c[nH]cn2)NC1=O` [^177Lu-labeled CCZ01048, metal not drawn, reference compound], the “Biodistribution, B16F10 tumour” value (B16F10 mouse melanoma; 1 h p.i., C57BL/6J mice, B16F10 melanoma) is reported as 16.3 ± 3.75 % ID/g, the “Biodistribution, B16F10 tumour” value (B16F10 mouse melanoma; 4 h p.i., C57BL/6J mice, B16F10 melanoma) is reported as 16.7 ± 3.86 % ID/g and the “Biodistribution, B16F10 tumour” value (B16F10 mouse melanoma; 24 h p.i., C57BL/6J mice, B16F10 melanoma) is reported as 4.39 ± 1.36 % ID/g. The “Biodistribution, B16F10 tumour” value (B16F10 mouse melanoma; [3]) was 0.41 ± 0.21 % ID/g, the “Biodistribution, Blood” value (B16F10 mouse melanoma; [3]) was 0.00 ± 0.00 % ID/g and the tissue uptake at 1 h ([2]; male, seminal glands, 1 h p.i., read-out: Biodistribution, Seminal glands) was 0.16 ± 0.03 %ID/g. For the same compound, the tissue uptake at 1 h ([2]; male, testes, 1 h p.i., read-out: Biodistribution, Testes) was 0.27 ± 0.04 %ID/g, the tissue uptake at 4 h ([2]; male, testes, 4 h p.i., read-out: Biodistribution, Testes) was 0.16 ± 0.02 %ID/g and the tissue uptake at 1 h ([2]; adrenal glands, 1 h p.i., read-out: Biodistribution, Adrenal glands) was 0.38 ± 0.38 %ID/g. For the same compound, the tissue uptake at 1 h ([2]; bone, 1 h p.i., read-out: Biodistribution, Bone) was 0.19 ± 0.01 %ID/g, the tissue uptake at 1 h ([2]; heart, 1 h p.i., read-out: Biodistribution, Heart) was 0.18 ± 0.02 %ID/g and the tissue uptake at 1 h ([2]; intestine, 1 h p.i., read-out: Biodistribution, Intestine) was 0.33 ± 0.06 %ID/g. The tissue uptake at 4 h ([2]; intestine, 4 h p.i., read-out: Biodistribution, Intestine) was 0.49 ± 0.46 %ID/g, the tissue uptake at 24 h ([2]; intestine, 24 h p.i., read-out: Biodistribution, Intestine) was 0.27 ± 0.23 %ID/g and the tissue uptake at 1 h ([2]; kidneys, 1 h p.i., read-out: Biodistribution, Kidneys) was 5.36 ± 0.32 %ID/g. For the same compound, the tissue uptake at 4 h ([2]; kidneys, 4 h p.i., read-out: Biodistribution, Kidneys) was 4.89 ± 1.06 %ID/g, the tissue uptake at 24 h ([2]; kidneys, 24 h p.i., read-out: Biodistribution, Kidneys) was 1.78 ± 0.32 %ID/g and the tissue uptake at 120 h ([2]; kidneys, 120 h p.i., read-out: Biodistribution, Kidneys) was 0.36 ± 0.09 %ID/g. The tissue uptake at 1 h ([2]; liver, 1 h p.i., read-out: Biodistribution, Liver) was 0.54 ± 0.08 %ID/g, the tissue uptake at 4 h ([2]; liver, 4 h p.i., read-out: Biodistribution, Liver) was 0.48 ± 0.1 %ID/g and the tissue uptake at 24 h ([2]; liver, 24 h p.i., read-out: Biodistribution, Liver) was 0.34 ± 0.05 %ID/g. For the same compound, the tissue uptake at 120 h ([2]; liver, 120 h p.i., read-out: Biodistribution, Liver) was 0.16 ± 0.04 %ID/g, the tissue uptake at 1 h ([2]; lungs, 1 h p.i., read-out: Biodistribution, Lungs) was 0.73 ± 0.4 %ID/g and the tissue uptake at 1 h ([2]; spleen, 1 h p.i., read-out: Biodistribution, Spleen) was 0.29 ± 0.02 %ID/g. For the same compound, the tissue uptake at 4 h ([2]; spleen, 4 h p.i., read-out: Biodistribution, Spleen) was 0.22 ± 0.06 %ID/g, the tissue uptake at 1 h ([2]; stomach, 1 h p.i., read-out: Biodistribution, Stomach) was 0.59 ± 0.16 %ID/g and the tissue uptake at 4 h ([2]; stomach, 4 h p.i., read-out: Biodistribution, Stomach) was 0.56 ± 0.08 %ID/g. The tissue uptake at 1 h ([2]; thyroid, 1 h p.i., read-out: Biodistribution, Thyroid) was 2.57 ± 0.62 %ID/g, the tissue uptake at 4 h ([2]; thyroid, 4 h p.i., read-out: Biodistribution, Thyroid) was 2.16 ± 0.4 %ID/g and the tissue uptake at 24 h ([2]; thyroid, 24 h p.i., read-out: Biodistribution, Thyroid) was 1.24 ± 0.32 %ID/g. It also gave a tissue to tissue ratio at 1 h ([2]; tumour/blood, 1 h p.i., read-out: Tumour/blood) of 32.4 ± 7.58, a tissue to tissue ratio at 4 h ([2]; tumour/blood, 4 h p.i., read-out: Tumour/blood) of 206 ± 73.7 and a tissue to tissue ratio at 24 h ([2]; tumour/blood, 24 h p.i., read-out: Tumour/blood) of 530 ± 45.1. For the same compound, the tissue to tissue ratio at 120 h ([2]; tumour/blood, 120 h p.i., read-out: Tumour/blood) was 233 ± 57.8, the tissue to tissue ratio at 1 h ([2]; tumour/kidney, 1 h p.i., read-out: Tumour/kidney) was 3.04 ± 0.63 and the tissue to tissue ratio at 4 h ([2]; tumour/kidney, 4 h p.i., read-out: Tumour/kidney) was 3.65 ± 1.48. For the same compound, the tissue to tissue ratio at 24 h ([2]; tumour/kidney, 24 h p.i., read-out: Tumour/kidney) was 2.25 ± 0.15, the tissue to tissue ratio at 120 h ([2]; tumour/kidney, 120 h p.i., read-out: Tumour/kidney) was 1.14 ± 0.65 and the tissue to tissue ratio at 1 h ([2]; tumour/muscle, 1 h p.i., read-out: Tumour/muscle) was 126 ± 34.1. It also gave a tissue to tissue ratio at 4 h ([2]; tumour/muscle, 4 h p.i., read-out: Tumour/muscle) of 561 ± 208, a tissue to tissue ratio at 24 h ([2]; tumour/muscle, 24 h p.i., read-out: Tumour/muscle) of 239 ± 108 and a tissue to tissue ratio at 120 h ([2]; tumour/muscle, 120 h p.i., read-out: Tumour/muscle) of 80.9 ± 28.1. The excreta dose per gram or mL at 1 h ([2]; urine, 1 h p.i.) was 110 ± 81.9 %ID/g, the excreta dose per gram or mL at 4 h ([2]; urine, 4 h p.i.) was 13.8 ± 10.2 %ID/g and the excreta dose per gram or mL at 24 h ([2]; urine, 24 h p.i.) was 1.99 ± 1.39 %ID/g. For the same compound, the excreta dose per gram or mL at 120 h ([2]; urine, 120 h p.i.) was 0.22 ± 0.05 %ID/g.
